Results taken from patent publication US8933230B2, “Phosphorus-containing group-substituted quinoline, its preparation process, medical composition containing the compounds and application” (priority 2011, dated 2015).

Assays:
[1] = system: GTL-16 human gastric cancer cells; test: Anti-tumor experiment, GTL-16 xenograft in nude mice; type: in vivo, BALB/c-nu/nu mice; settings: after 14 days, 50 mg/kg qd p.o.
From the text: Anti-tumor experiments: in this example, N1-[4-[[7-[3-(diethoxyphosphorylmethylamino)propoxyl]-6-methoxyl-4-quinolyl]oxyl]-3-fluorophenyl]-N1′-(4-fluorophenyl)cyclopropane-1,1-dicarboxamide obtained from Example 3 is used in the anti-tumor experiments in nude mice animal model of xenograft GTL-16 human gastric cancer cells, the methods and results are as follows:
7-8 weeks old SPF level female BALB/c-nu/nu mice with 16-20 g of body weights are purchased from Experimental Animal Center of Guangdong Province, inspection certificate number: NO:0072659. GTL-16 gastric cancer cells are purchased from the Cell Source Center of Shanghai Institutes for Biological Sciences. RPM 1-1640 cell culture medium, fetal calf serum (FBS) and digestive juice of trypsin are from Gibco Corporation. All the antibiotics are purchased from Sigma Company.
(§1) Firstly culturing the GTL-16 gastric cancer cells: GTL-16 cell line is inoculated in RPM 1-1640 culture solution containing 10% FBS, 100 U/ml penicillin, 100 U/ml streptomycin, and cultured at 37° C., 5% CO2, 100% humidity in a carbon dioxide cell incubator, the cells enter into logarithmic growth phase after 24 hours, after 48 hours of inoculation, the cells grow to cover the bottom of the culture bottle. […]

[2] = Body weight of GTL-16 tumor-bearing nude mice under treatment; type: in vivo, BALB/c-nu/nu mice; settings: after treating for 14 days, 50 mg/kg qd p.o.
Protocol: as §1, with “bottle. Then the GTL-16 cells covering 80% bottom of the culture bottle are digested, 5 minutes after centrifuging at 1000 r/min, the cells are diluted to 2×10^7/ml and implanted subcutaneously in the right anterior axillary fossa with 0.1 ml per mouse.” for “bottle.”

Q: Which “Tumor Growth Inhibition (TGI)” value [1] does the source give for `CCOP(=O)(CNCCCOc1cc2nccc(Oc3ccc(NC(=O)C4(C(=O)Nc5ccc(F)cc5)CC4)cc3F)c2cc1OC)OCC` [Example 3, N1-[4-[[7-[3-(diethoxyphosphorylmethylamino)propoxyl]-6-methoxyl-4-quinolyl]oxyl]-3-fluorophenyl]-N1′-(4-fluorophenyl)cyclopropane-1,1-dicarboxamide] here?
A: 85%

Q: What about the average tumor volume ([1]; mean±SD, n=8) of the same compound?
A: 57.1±61.2 mm^3

Q: What about the body weight change [2] of the same compound?
A: < 5%
